Where a name gives a salt, the structure may show the parent alone.

Experiment [1] addresses T1, human 5-HT4b receptor (Homo sapiens, UniProt Q13639).
T1 construct: expressed in transfected cells; host or cells: CHO cells (G418 selection)
Put plainly: Test Example 4: Serotonin 4 (5-HT4) receptor agonist activity assay, cAMP HTRF in CHO cells (Table 100). It counts as cell-based. The following applies: mean value; for Emax: CHO, 0.25 h, intrinsic activity, maximal activity of 5-HT defined as 100%, read-out: IA (%); for EC50: concentration showing 50% of IA. On the procedure: The cAMP measurement test used herein was carried out by using CISBIO HTRF (trademark) cAMP Hirange kit according to the manufacturer's instructions attached therewith.
CHO cells expressing human 5-HT4b receptor were incubated in Medium 1 [DMEM/1% NEAA, 1% penicillin/streptomycin (P/S), 0.2 mg/mL GENETICIN (G418), 10% FBS] at 37° C. under 5% CO2 condition. Then, the cells were put into Medium 2 (DMEM/10000 cut FBS, G-418, P/S, NEAA) for 1 to 2 hours, and collected by treating with trypsin containing EDTA. The collected cells were suspended in Assay Buffer 1 [100 mM Hanks/HEPES buffer (pH 7.4)], the suspended cells were mixed with the testing compound on 384-well plates, and the cells were incubated at 31° C. for 15 minutes. To the cells were added cAMP-cryptate solution and cAMP-d2 solution, and they were incubated at room temperature for 1 hour. Then, time-resolved fluorescence was measured by En Vision (excitation wavelength: 330 nm, fluorescence wavelength: 620/665 nm).
An intrinsic activity of the compound [IA (%)] and a concentration showing 50% of IA [EC50 (nM)] were calculated from the obtained results. In particular, the intrinsic activity (IA) was calculated on the basis of the maximal activity of 5-HT (measured from 10^−11 M to 10^−7 M) defined as 100%.
In the following table, the compounds used in the test are shown in numbers which correspond to the Example numbers above where the preparations of the compounds are described.
(In general: In TR-FRET formats the signal depends on donor and acceptor labels being close together.)

Experiment [2] addresses T2, 5-HT4 receptor (Cavia porcellus, UniProt O70528).
T2 construct: striatum was isolated which was cryopreserved at −80° C. until use; from tissue; host or cells: guinea pig (Slc-Hartley) striatum membranes
The experiment can be described thus: Test Example 3: Guinea pig 5-HT4 receptor binding assay, [3H]-GR113808, striatum membranes (Table 98). The following applies: Guinea pig 5-HT4 receptor binding assay, [3H]-GR113808, striatum membranes; mean value of each group; read-out: IC50. As for the experimental part:
The guinea pig 5-HT4 receptor binding assay and preparations of receptor membrane preparations herein were carried out according to a method of Grossman et al. [see, British J. Pharmacol., (1993) 109, 618].
Slc-Hartley guinea pigs (body weight 300 g to 400 g) were decapitated to remove brain rapidly, and striatum was isolated which was cryopreserved at −80° C. until use. To the obtained tissues were added fifteen fold of Hepes buffer (50 mM, pH 7.4, 4° C.), and the mixture was homogenized by Teflon (trademark) homogenizer and centrifuged at 48,000×g (4° C.) for 15 minutes. To the resulting precipitate was added Hepes buffer (1 ml) to 30 mg by wet weight of tissues, and the mixture was suspended to give receptor membrane preparations.
To an assay tube were added 0.1 nM [^3H]-GR113808 {chemical name: [1-[2-(methylsulfonylamino) ethyl]-4-piperidinyl]methyl 1-methylindole-3-carboxylate}, receptor membrane preparations, and Hepes buffer (50 mM, pH 7.4, 4° C., 1 ml) containing test compounds or 30 μM serotonin; and the mixture was incubated at 37° C. for 30 minutes. On quenching the reaction, the mixture was rapidly filtered on whatman GF/B filter, which was presoaked in 0.1% polyethyleneimine for 1 hour, by using Brandel cell Harvester, and washed with ice-cooled 50 mM Tris-HCl (pH 7.7, 4 ml) three times. To the filter after filtration was added a liquid scintillator (Ecoscint), and then a radioactivity was determined by a liquid scintillation counter.
50% Inhibition concentrations (IC50) were determined from inhibition rates of test compounds to specific bindings which were obtained by subtracting nonspecific bindings from total binding amounts of [^3H]-GR113808. […]

T2 sequence (O70528 whole entry): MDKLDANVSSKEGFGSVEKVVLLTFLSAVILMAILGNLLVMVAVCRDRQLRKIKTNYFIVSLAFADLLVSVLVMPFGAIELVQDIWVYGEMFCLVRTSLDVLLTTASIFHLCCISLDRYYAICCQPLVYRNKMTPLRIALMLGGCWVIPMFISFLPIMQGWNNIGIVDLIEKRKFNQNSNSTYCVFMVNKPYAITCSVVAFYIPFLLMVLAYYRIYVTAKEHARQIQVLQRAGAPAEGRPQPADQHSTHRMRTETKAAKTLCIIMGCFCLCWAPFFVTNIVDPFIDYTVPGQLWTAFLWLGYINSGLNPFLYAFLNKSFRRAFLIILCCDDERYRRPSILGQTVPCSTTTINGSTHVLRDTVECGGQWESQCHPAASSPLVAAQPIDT
T1 sequence (Q13639 whole entry): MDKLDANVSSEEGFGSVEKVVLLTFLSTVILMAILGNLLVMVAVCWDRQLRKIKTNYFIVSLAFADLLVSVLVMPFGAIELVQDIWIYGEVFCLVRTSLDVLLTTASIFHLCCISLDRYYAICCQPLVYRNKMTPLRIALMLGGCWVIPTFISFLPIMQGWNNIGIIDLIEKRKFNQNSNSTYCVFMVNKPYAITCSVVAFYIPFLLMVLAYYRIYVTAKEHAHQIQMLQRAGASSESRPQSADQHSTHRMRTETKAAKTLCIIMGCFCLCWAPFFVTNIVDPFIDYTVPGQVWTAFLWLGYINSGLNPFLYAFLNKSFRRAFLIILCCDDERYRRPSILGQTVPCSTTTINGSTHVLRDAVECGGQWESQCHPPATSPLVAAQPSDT

With `COC(=O)N1CC(CN2CCC(c3nc(-n4nc(C(C)C)c5ccc(F)c(F)c54)no3)CC2)C1` [Example 474, methyl 3-[(4-{3-[6,7-difluoro-3-(propan-2-yl)-1H-indazol-1-yl]-1,2,4-oxadiazol-5-yl}piperidin-1-yl)methyl]azetidine-1-carboxylate trifluoroacetate], in experiment [1], the Emax came to 89.4% and the concentration giving a half-maximal response (EC50) came to 34.4 nM. Moreover, the half-maximal inhibitory concentration (IC50) in experiment [2] worked out at 20.2 nM.
On the same counts, the results for `CCc1nn(-c2noc(C3CCN(C[C@H]4CCN(C(=O)CO)C4)CC3)n2)c2c(F)cccc12` [Example 247, 1-[(3R)-3-({4-[3-(3-ethyl-7-fluoro-1H-indazol-1-yl)-1,2,4-oxadiazol-5-yl]piperidin-1-yl}methyl)pyrrolidin-1-yl]-2-hydroxyethanone] are 79%, 12.7 nM and below 20 nM.
As for `CCc1nn(-c2noc(C3CCN(C[C@@H]4CCN(S(C)(=O)=O)C4)CC3)n2)c2c(F)cccc12` [Example 203, 3-ethyl-7-fluoro-1-[5-(1-{[(3S)-1-(methylsulfonyl)pyrrolidin-3-yl]methyl}piperidin-4-yl)-1,2,4-oxadiazol-3-yl]-1H-indazole], in experiment [1], the Emax came out at 71.8% and the EC50 is 1.1 nM. The half-inhibitory concentration (IC50) in experiment [2] is below 20 nM.
With `CCc1nn(-c2noc(C3CCN(CC4CN(C(=O)COC)C4)CC3)n2)c2c(F)c(F)ccc12` [Example 469, 1-[3-({4-[3-(3-ethyl-6,7-difluoro-1H-indazol-1-yl)-1,2,4-oxadiazol-5-yl]piperidin-1-yl}methyl)azetidin-1-yl]-2-methoxyethanone trifluoroacetate], in experiment [1], the Emax was 68.8% and it took 5.3 nM to reach a half-maximal effect (EC50). Moreover, the IC50 in experiment [2] is 20.4 nM.
On the same counts, the results for `CCc1nn(-c2noc(C3CCN(CC4CN(C(=O)CO)C4)CC3)n2)c2c(F)cccc12` [compound 250, 1-[3-({4-[3-(3-ethyl-7-fluoro-1H-indazol-1-yl)-1,2,4-oxadiazol-5-yl]piperidin-1-yl}methyl)azetidin-1-yl]-2-hydroxyethanone] are 79.7%, 3.5 nM and below 20 nM.
As for `CCc1nn(-c2noc(C3CCN(CC4CCN(C(=O)COC)CC4)CC3)n2)c2c(F)c(F)ccc12` [Example 477, 1-[4-({4-[3-(3-ethyl-6,7-difluoro-1H-indazol-1-yl)-1,2,4-oxadiazol-5-yl]piperidin-1-yl}methyl)piperidin-1-yl]-2-methoxyethanone trifluoroacetate], in experiment [1], the Emax came out at 65.5% and the response was half-maximal at 11.4 nM (EC50). For the same molecule, in experiment [2], the IC50 was below 20 nM.
Regarding `COC(=O)N1CCC(N2CCC(c3nc(-n4nc(C(C)C)c5ccc(F)c(F)c54)no3)CC2)CC1` [Example 463, methyl 4-{3-[6,7-difluoro-3-(propan-2-yl)-1H-indazol-1-yl]-1,2,4-oxadiazol-5-yl}-1,4′-bipiperidine 1′-carboxylate trifluoroacetate], in experiment [1], the Emax turned out to be 64.4% and the response was half-maximal at 8.3 nM (EC50). Moreover, the IC50 in experiment [2] was below 20 nM.
Turning to `COCC(=O)N1CCC(N2CCC(c3nc(-n4nc(C(C)C)c5cccc(F)c54)no3)CC2)CC1` [Example 233, 1-(4-{3-[7-fluoro-3-(propan-2-yl)-1H-indazol-1-yl]-1,2,4-oxadiazol-5-yl}-1,4′-bipiperidin-1′-yl)-2-methoxyethanone hydrochloride], in experiment [1], the Emax stood at 93.5% and the half-maximal effective concentration (EC50) was 2.9 nM. The IC50 in experiment [2] is below 20 nM.
On the same counts, the results for `CC(C)c1nn(-c2noc(C3CCN(C(C)C)CC3)n2)c2c(F)c(F)ccc12` [Example 450, 6,7-difluoro-3-(propan-2-yl)-1-{5-[1-(propan-2-yl)piperidin-4-yl]-1,2,4-oxadiazol-3-yl}-1H-indazole trifluoroacetate] are 87.7%, 15.8 nM and below 20 nM.
The like results for `COCC(=O)N1CC(CN2CCC(c3nc(-n4nc(C(C)C)c5cccc(F)c54)no3)CC2)C1` [Example 221, 1-{3-[(4-{3-[7-fluoro-3-(propan-2-yl)-1H-indazol-1-yl]-1,2,4-oxadiazol-5-yl}piperidin-1-yl)methyl]azetidin-1-yl}-2-methoxyethanone hydrochloride] were, in that order, 86.1%, 6.1 nM and below 20 nM.
On the same counts, the results for `CCc1nn(-c2noc(C3CCN(CC4CCN(C(C)=O)CC4)CC3)n2)c2c(F)c(F)ccc12` [Example 478, 1-[4-({4-[3-(3-ethyl-6,7-difluoro-1H-indazol-1-yl)-1,2,4-oxadiazol-5-yl]piperidin-1-yl}methyl)piperidin-1-yl]ethanone trifluoroacetate] are 68.7%, 32.4 nM and below 20 nM.
`CC(C)c1nn(-c2noc(C3CCN(C4CCN(C(=O)CO)CC4C)CC3)n2)c2c(F)cccc12` (stereo not drawn) [Example 530, 1-(4-{3-[7-fluoro-3-(propan-2-yl)-1H-indazol-1-yl]-1,2,4-oxadiazol-5-yl}-3′-methyl-1,4′-bipiperidin-1′-yl)-2-hydroxyethanone]: in experiment [1], the Emax was found to be 97% and the concentration for a half-maximal effect (EC50) turned out to be 3.1 nM. For the same molecule, the IC50 in experiment [2] is below 20 nM.
On the same counts, the results for `CC(=O)N1CCC(N2CCC(c3nc(-n4nc(C(C)C)c5ccccc54)no3)CC2)CC1` [Example 458, 1-(4-{3-[3-(propan-2-yl)-1H-indazol-1-yl]-1,2,4-oxadiazol-5-yl}-1,4′-bipiperidin-1′-yl)ethanone trifluoroacetate] are 85.4%, 2.7 nM and 66 nM.
On the same counts, the results for `CCc1nn(-c2noc(C3CCN(CC4CCOCC4)CC3)n2)c2c(F)c(F)ccc12` [Example 449, 3-ethyl-6,7-difluoro-1-{5-[1-(tetrahydro-2H-pyran-4-ylmethyl)piperidin-4-yl]-1,2,4-oxadiazol-3-yl}-1H-indazole trifluoroacetate] are 76.4%, 31.2 nM and below 20 nM.
The like results for `COC(=O)N1CC(CN2CCC(c3nc(-n4nc(C(C)C)c5cccc(F)c54)no3)CC2)C1` [Example 220, methyl 3-[(4{3-[7-fluoro-3-(propan-2-yl)-1H-indazol-1-yl]-1,2,4-oxadiazol-5-yl}piperidin-1-yl)methyl]azetidine-1-carboxylate hydrochloride] were, in that order, 92.4%, 4.8 nM and below 20 nM.
With `COc1ccc(F)c2c1c(C(C)C)nn2-c1noc(C2CCN(C3CCN(C(C)=O)CC3)CC2)n1` [Example 405, 1-(4-{3-[7-fluoro-4-methoxy-3-(propan-2-yl)-1H-indazol-1-yl]-1,2,4-oxadiazol-5-yl}-1,4′-bipiperidin-1′-yl)ethanone], in experiment [1], the Emax turned out to be 21.6% and a half-maximal response (EC50) required 34.2 nM. Besides, in experiment [2], the IC50 is 65.4 nM.
The like results for `CC(C)c1nn(-c2noc(C3CCN(C4CCC4)CC3)n2)c2ccccc12` [Example 420, 1-[5-(1-cyclobutylpiperidin-4-yl)-1,2,4-oxadiazol-3-yl]-3-(propan-2-yl)-1H-indazole trifluoroacetate] were, in that order, 85.6%, 8.2 nM and 73.9 nM.

The term EC50 denotes the concentration that produces a half-maximal response. The low end stands for greater potency, the high end for weaker potency. By IC50 is commonly meant the concentration needed to halve the response being measured.

These data come from patent US20140057895A1, “INDAZOLE- AND PYRROLOPYRIDINE-DERIVATIVE AND PHARMACEUTICAL USE THEREOF” (priority 2011, published 2014).
